Source: patent US8415469B2, “Compounds and methods for kinase modulation, and indications therefor” (Plexxikon Inc., priority 2005, dated 2013)

Columns and labels:
Format in all cases: biochemical
Kdr = target: T1, Kdr (Homo sapiens, UniProt P35968); assay: Z'-Lyte FRET kinase assay (Invitrogen), Kdr; details: read-out: IC50, activity toward kinase Kdr
T1 construct: purchased Invitrogen (assay run by Invitrogen)

FGFR1 = target: T2, FGFR1 (Homo sapiens, UniProt P11362, C488A/C584S); assay: AlphaScreen kinase assay, FGFR1; details: read-out: IC50, activity toward kinase FGFR
T2 construct: P1351.pET N6 BI-PTP FGFR A458-E765-X C488A, C584S; made in house; host or cells: E. coli (PTP1B co-expressed)

Kit = target: T3, Kit (Homo sapiens, UniProt P10721); assay: AlphaScreen kinase assay, Kit; details: read-out: IC50, activity toward kinase Kit
T3 construct: P1332.N6 BI PTP KIT M552-K948-X COD; His6 (N); made in house; host or cells: E. coli (PTP1B co-expressed)

B-Raf = target: T4, B-Raf (Homo sapiens, UniProt P15056); assay: AlphaScreen kinase assay, B-Raf; details: read-out: IC50, activity toward kinase B-Raf
T4 construct: purchased Upstate Biotechnology

B-Raf V600E = target: T5, B-Raf V600E (Homo sapiens, UniProt P15056, V600E); assay: AlphaScreen kinase assay, B-Raf V600E; details: read-out: IC50, activity toward kinase B-Raf V600E
T5 construct: P4254. pFastBacBD-CDC37 BRAF D437-K722-X, V600E; His6 with pFastBac HT leader (TEV site) (N); made in house; host or cells: Sf9 (baculovirus; chaperone CDC37 co-expressed)

c-Raf-1 = target: T6, c-Raf-1 (Homo sapiens, UniProt P04049); assay: AlphaScreen kinase assay, c-Raf-1; details: read-out: IC50, activity toward kinase c-Raf-1
T6 construct: purchased Upstate Biotechnology

Flt1 = target: T7, Flt1 (Homo sapiens, UniProt P17948); assay: AlphaScreen kinase assay, Flt1; details: read-out: IC50, activity toward kinase Flt1
T7 construct: P1826.pETN6 BI-PTP FLT1 M799-D1165-X WT; His6 (N); made in house; host or cells: E. coli (PTP1B co-expressed)
T7 sequence (P17948 with tags, fused parts or gaps): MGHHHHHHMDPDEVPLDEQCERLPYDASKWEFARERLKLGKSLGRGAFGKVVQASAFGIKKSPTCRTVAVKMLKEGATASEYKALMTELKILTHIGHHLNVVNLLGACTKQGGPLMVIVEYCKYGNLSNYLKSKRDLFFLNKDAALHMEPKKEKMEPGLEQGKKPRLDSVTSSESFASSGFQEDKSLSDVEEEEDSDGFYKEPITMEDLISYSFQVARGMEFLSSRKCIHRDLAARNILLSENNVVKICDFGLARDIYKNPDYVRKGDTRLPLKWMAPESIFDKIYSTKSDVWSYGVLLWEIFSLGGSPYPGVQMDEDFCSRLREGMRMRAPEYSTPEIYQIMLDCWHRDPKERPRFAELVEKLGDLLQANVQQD

Fms = target: T8, Fms (Homo sapiens, UniProt P07333); assay: AlphaScreen kinase assay, Fms; details: read-out: IC50, activity toward kinase Fms
T8 construct: purchased Upstate Biotechnology
T8 sequence (P07333 20-972): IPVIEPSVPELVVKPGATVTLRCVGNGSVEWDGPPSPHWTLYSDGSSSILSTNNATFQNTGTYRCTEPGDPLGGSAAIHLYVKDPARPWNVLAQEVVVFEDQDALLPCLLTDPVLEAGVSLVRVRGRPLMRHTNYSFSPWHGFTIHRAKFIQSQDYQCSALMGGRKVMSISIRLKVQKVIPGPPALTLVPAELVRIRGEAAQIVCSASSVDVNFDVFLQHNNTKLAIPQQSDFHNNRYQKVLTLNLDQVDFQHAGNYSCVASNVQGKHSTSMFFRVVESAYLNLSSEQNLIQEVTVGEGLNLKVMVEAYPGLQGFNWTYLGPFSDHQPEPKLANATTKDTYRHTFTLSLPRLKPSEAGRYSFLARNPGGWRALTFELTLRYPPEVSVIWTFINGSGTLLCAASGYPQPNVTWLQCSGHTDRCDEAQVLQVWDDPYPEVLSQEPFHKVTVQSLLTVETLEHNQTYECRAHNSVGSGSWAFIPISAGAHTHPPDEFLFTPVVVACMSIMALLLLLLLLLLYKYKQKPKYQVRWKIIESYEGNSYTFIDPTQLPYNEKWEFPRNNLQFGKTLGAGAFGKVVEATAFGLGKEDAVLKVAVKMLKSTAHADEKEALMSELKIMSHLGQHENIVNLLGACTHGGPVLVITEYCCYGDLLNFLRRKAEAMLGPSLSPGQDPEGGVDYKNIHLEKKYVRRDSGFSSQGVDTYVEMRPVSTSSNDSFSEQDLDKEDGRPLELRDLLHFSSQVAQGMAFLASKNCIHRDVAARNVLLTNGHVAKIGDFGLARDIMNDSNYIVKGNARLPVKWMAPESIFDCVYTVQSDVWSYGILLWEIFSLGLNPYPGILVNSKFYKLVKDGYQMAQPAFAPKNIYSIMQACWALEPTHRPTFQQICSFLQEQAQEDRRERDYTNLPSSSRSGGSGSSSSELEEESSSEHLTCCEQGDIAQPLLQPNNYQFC

T3 sequence (P10721 with tags, fused parts or gaps): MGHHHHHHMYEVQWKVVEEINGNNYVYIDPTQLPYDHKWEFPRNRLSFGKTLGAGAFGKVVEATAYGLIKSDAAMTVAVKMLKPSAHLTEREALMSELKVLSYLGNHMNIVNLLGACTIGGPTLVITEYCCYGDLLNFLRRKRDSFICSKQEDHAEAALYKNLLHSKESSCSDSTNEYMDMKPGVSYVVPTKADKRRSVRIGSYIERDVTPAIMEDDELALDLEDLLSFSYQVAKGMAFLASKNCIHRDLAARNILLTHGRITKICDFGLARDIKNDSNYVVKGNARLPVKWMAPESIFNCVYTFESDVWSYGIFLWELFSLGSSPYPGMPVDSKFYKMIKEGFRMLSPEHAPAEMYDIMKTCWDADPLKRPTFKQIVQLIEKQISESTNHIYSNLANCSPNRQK
T5 sequence (P15056 with tags, fused parts or gaps V600E): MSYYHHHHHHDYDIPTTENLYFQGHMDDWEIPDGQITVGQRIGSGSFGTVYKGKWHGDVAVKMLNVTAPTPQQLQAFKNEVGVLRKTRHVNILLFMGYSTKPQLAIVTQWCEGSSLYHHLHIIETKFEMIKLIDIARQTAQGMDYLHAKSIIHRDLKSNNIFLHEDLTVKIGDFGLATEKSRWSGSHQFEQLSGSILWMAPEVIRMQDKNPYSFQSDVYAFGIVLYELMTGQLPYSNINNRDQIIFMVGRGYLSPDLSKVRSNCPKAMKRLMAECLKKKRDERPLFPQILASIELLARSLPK
T2 sequence (P11362 458-765 C488A/C584S): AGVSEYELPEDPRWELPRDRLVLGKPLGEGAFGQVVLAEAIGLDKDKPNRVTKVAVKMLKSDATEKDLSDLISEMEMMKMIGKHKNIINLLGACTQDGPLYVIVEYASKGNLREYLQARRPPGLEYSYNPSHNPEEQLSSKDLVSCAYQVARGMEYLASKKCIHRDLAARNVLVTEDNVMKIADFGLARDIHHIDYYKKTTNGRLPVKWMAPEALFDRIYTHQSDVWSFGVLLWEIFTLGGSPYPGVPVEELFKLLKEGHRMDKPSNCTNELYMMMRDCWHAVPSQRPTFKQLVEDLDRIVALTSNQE
T1 sequence (P35968 20-1356): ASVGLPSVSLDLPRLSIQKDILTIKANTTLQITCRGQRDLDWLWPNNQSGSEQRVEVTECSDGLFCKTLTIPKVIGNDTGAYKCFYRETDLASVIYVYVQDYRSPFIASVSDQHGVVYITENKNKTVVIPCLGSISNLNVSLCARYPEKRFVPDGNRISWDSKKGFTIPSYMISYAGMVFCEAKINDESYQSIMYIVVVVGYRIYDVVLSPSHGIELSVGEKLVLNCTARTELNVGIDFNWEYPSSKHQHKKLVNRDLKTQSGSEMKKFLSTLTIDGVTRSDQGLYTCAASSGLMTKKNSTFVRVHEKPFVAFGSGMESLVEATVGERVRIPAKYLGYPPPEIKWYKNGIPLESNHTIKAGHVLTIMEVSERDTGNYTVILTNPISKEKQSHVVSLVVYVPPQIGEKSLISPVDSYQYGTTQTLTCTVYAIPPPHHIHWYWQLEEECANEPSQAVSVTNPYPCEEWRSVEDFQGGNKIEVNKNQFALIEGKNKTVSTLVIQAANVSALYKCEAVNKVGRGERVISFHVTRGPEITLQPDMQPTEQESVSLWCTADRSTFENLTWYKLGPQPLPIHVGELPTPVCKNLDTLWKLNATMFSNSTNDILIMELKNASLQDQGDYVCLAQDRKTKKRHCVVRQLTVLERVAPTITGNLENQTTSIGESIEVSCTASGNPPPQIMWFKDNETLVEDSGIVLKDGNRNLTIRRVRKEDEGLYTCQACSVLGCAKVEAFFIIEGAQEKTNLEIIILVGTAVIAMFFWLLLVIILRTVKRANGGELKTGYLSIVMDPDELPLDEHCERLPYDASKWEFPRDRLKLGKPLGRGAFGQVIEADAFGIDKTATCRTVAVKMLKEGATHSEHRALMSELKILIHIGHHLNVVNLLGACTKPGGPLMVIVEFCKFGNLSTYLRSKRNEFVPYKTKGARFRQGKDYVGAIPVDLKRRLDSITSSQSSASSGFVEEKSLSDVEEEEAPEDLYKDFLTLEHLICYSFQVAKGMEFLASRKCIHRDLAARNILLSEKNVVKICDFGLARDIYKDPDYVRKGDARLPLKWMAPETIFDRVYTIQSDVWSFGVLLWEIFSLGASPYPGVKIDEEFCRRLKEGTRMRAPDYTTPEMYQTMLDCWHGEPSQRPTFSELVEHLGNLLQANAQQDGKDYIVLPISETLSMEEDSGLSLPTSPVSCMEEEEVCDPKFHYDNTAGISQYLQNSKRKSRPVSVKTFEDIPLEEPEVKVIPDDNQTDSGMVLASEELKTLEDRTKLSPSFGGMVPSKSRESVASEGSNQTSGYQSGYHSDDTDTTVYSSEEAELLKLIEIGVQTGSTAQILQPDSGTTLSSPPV
T6 sequence (P04049 whole entry): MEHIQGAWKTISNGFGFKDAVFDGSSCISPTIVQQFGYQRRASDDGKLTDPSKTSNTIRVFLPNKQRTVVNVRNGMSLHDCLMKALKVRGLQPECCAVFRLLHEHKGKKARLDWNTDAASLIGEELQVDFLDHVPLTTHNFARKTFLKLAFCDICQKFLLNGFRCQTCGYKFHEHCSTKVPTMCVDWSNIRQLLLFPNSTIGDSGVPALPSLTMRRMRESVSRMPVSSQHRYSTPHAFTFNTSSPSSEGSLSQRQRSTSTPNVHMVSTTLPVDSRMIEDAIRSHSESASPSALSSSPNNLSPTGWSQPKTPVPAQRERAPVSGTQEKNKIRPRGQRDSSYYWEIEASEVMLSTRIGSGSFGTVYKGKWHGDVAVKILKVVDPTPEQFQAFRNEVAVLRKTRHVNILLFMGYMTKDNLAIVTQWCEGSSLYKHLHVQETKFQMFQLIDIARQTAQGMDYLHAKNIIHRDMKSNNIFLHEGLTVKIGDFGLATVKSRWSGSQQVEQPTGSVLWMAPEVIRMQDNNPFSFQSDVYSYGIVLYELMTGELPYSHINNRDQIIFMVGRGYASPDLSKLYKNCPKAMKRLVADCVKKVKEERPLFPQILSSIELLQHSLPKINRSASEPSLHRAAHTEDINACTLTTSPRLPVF
T4 sequence (P15056 whole entry): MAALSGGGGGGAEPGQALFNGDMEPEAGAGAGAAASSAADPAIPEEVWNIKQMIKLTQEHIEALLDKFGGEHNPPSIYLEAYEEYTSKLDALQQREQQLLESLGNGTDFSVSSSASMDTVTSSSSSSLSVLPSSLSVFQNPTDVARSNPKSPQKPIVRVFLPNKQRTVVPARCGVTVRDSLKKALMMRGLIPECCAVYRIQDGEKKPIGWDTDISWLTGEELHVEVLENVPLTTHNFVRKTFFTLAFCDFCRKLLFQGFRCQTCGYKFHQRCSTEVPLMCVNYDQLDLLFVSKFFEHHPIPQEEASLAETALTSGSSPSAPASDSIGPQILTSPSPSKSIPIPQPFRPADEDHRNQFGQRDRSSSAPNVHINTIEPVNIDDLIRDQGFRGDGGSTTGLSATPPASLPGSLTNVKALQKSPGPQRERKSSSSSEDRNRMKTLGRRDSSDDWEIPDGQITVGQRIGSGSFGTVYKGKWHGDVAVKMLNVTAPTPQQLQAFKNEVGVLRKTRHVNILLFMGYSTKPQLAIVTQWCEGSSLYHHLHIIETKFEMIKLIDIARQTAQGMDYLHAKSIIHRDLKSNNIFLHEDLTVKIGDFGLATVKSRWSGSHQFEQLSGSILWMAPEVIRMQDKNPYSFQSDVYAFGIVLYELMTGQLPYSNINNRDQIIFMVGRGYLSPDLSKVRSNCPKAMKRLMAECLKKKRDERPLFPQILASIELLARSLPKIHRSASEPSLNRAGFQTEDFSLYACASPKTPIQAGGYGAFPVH

Structure (SMILES) | IC50 (Kdr) [µM] | IC50 (FGFR1) [µM] | IC50 (Kit) [µM] | IC50 (B-Raf V600E) [µM] | other results
O=C(c1cccc(Cl)c1F)c1c[nH]c2ncc(Br)cc12 [Compound P-0299, (5-Bromo-1H-pyrrolo[2,3-b]pyridin-3-yl)-(3-chloro-2-fluoro-phenyl)-methanone] | ≤ 10 |  |  |  | 
Clc1cccc(-c2ccnc3[nH]ccc23)c1 [Compound P-0427] | ≤ 10 |  | ≤ 10 |  | 
Brc1ccnc2[nH]ccc12 [Compound P-0458] | ≤ 10 |  |  |  | 
COc1cc(OC)cc(C(=O)c2c[nH]c3ncccc23)c1 [Compound P-0473] | ≤ 10 | ≤ 10 | ≤ 10 |  | 
Cc1ccccc1-c1c[nH]c2ncccc12 [Compound P-0482] | ≤ 10 |  |  |  | 
c1cc2cc(Nc3ccc(N4CCOCC4)cc3)cnc2[nH]1 [Compound P-0981] | ≤ 10 |  |  | ≤ 10 | 
O=C(c1c(Cl)ccc(OCC(F)(F)F)c1F)c1c[nH]c2ncc(-c3cccnc3)cc12 [Compound P-1395, [6-Chloro-2-fluoro-3-(2,2,2-trifluoro-ethoxy)-phenyl]-(5-pyridin-3-yl-1H-pyrrolo[2,3-b]pyridin-3-yl)-methanone] |  | ≤ 10 | ≤ 10 | ≤ 10 | IC50 (B-Raf): ≤ 10 µM; IC50 (c-Raf-1): ≤ 10 µM; IC50 (Flt1): ≤ 10 µM; IC50 (Fms): ≤ 10 µM
COc1cnc2[nH]cc(C(=O)c3c(F)ccc(NS(=O)(=O)c4ccc(C(F)(F)F)cc4)c3F)c2c1 [Compound P-1542, N-[2,4-Difluoro-3-(5-methoxy-1H-pyrrolo[2,3-b]pyridine-3-carbonyl)-phenyl]-4-trifluoromethyl-benzenesulfonamide] |  | ≤ 10 | ≤ 10 | ≤ 10 | IC50 (B-Raf): ≤ 10 µM; IC50 (c-Raf-1): ≤ 10 µM; IC50 (Flt1): ≤ 10 µM; IC50 (Fms): ≤ 10 µM
COc1cnc2[nH]cc(C(=O)c3c(F)ccc(NS(=O)(=O)c4cccc(F)c4)c3F)c2c1 [Compound P-1581, N-[2,4-Difluoro-3-(5-methoxy-1H-pyrrolo[2,3-b]pyridine-3-carbonyl)-phenyl]-3-fluoro-benzenesulfonamide] |  | ≤ 10 | ≤ 10 | ≤ 10 | IC50 (B-Raf): ≤ 10 µM; IC50 (c-Raf-1): ≤ 10 µM; IC50 (Flt1): ≤ 10 µM; IC50 (Fms): ≤ 10 µM
O=C(c1c(F)ccc(NS(=O)(=O)c2cccc(F)c2)c1F)c1c[nH]c2ncc(Cl)cc12 [Compound P-1583, N-[3-(5-Chloro-1H-pyrrolo[2,3-b]pyridine-3-carbonyl)-2,4-difluoro-phenyl]-3-fluoro-benzenesulfonamide] |  | ≤ 10 | ≤ 10 | ≤ 10 | IC50 (B-Raf): ≤ 10 µM; IC50 (c-Raf-1): ≤ 10 µM; IC50 (Flt1): ≤ 10 µM; IC50 (Fms): ≤ 10 µM

More lines, main results first:

IC50 (Kdr) [µM] | IC50 (FGFR1) [µM] | IC50 (Kit) [µM] | IC50 (B-Raf V600E) [µM] | Structure (SMILES) | other results
≤ 10 |  |  |  | Fc1ccc(NCc2c[nH]c3ncccc23)cc1 [Compound P-0144] | 
≤ 10 | ≤ 10 | ≤ 10 |  | COc1cccc(C(=O)c2c[nH]c3ncccc23)c1 [Compound P-0168] | 
≤ 10 |  |  |  | Oc1ccccc1-c1c[nH]c2ncccc12 [Compound P-0182] | 
≤ 10 | ≤ 10 |  | ≤ 10 | CC(C)CNc1ccc(Cc2c[nH]c3ncccc23)cn1 [Compound P-0192] | IC50 (B-Raf): ≤ 10 µM
≤ 10 |  |  |  | O=[N+]([O-])c1cccc(-c2ccnc3[nH]ccc23)c1 [Compound P-0197] | 
≤ 10 |  |  |  | Cc1cc(C(=O)c2c[nH]c3nccc(-c4cccc(NS(C)(=O)=O)c4)c23)n(C)n1 [Compound P-0234] | 
≤ 10 | ≤ 10 |  | ≤ 10 | COc1cccc(C(O)c2c[nH]c3ncc(Br)cc23)c1F (stereo not shown) [Compound P-0242] | 
≤ 10 |  |  | ≤ 10 | O=C(c1cc([N+](=O)[O-])ccc1F)c1c[nH]c2ncccc12 [Compound P-0243] | 
≤ 10 | ≤ 10 |  |  | CCc1cnc2[nH]cc(C(=O)c3cccc(OC)c3)c2c1 [Compound P-0267] | 
≤ 10 |  |  |  | COc1ccc(C(O)c2c[nH]c3ncccc23)cc1 (stereo not shown) [Compound P-0268] | 
≤ 10 |  |  |  | CC(C)Cc1nc(-c2ccnc3[nH]ccc23)no1 [Compound P-0288] | 
